Experiment [1] deals with non-small cell lung cancer (NSCLC) cells. The experiment can be described thus: Sensitivity of KRAS mutant NSCLC cell lines. The note with it: 4 NSCLC cell lines, APC wild-type. In kind it is cell-based. Here is the method:
(B) 5Z-7-oxozeaenol IC50 values for KRAS mutant PDAC and NSCLC cell lines.
To determine if sensitivity to TAK1 inhibition is specific to colon cancer-derived cell lines, sensitivity to 5Z-7-oxozeaenol was assessed in 5 KRAS mutant pancreatic ductal adenocarcinoma (PDAC) and 4 non-small cell lung cancer (NSCLC) cells, all of which are APC wild-type (FIG. 9B).

In experiment [2] the test system is KRAS-independent colon cancer cells. The experiment can be described thus: Apoptosis by PARP and caspase-3 cleavage. In kind it is cell-based, human. The settings on record: except at very high doses. Here is the method: (§1) (B) Effects of TAK1 inhibition on apoptosis and signaling in a representative panel of KRAS-independent and KRAS-dependent cell lines, 24 h after treatment. PARP and caspase-3 cleavage are shown as indicators of apoptosis, and AMPK threonine 172 (T172) phosphorylation is shown as a downstream indicator of TAK1 signaling activity. GAPDH serves as a gel loading control.
(§2) Pharmacologic TAK1 inhibition triggered apoptosis in KRAS-dependent colon cancer cells, as measured by PARP and caspase-3 cleavage (FIG. 3B). […] Thus, low concentrations of 5Z-7-oxozeaenol, in the range of 0.625 to 1.25 μM, promote apoptosis selectively in KRAS-dependent colon cancer cells.

Experiment [3] deals with threonine 172 phosphorylation of the AMP-activated kinase (p-AMPK). The experiment can be described thus: AMPK threonine 172 phosphorylation, western blot. In kind it is cell-based, human. The note with it: 24 h. As for the experimental part: as §1, §2
The following antibodies were used for western blotting in the above examples: KRAS OP-24, Pan-Ras OP-40 (Calbiochem); PARP (BD Pharmigen, 4C10-5); BMP-7 (Abcam); phospho-ERK, Axin2, phospho Smad1 and total Smad1/5/8, phospho- and total AMPK, phospho- and total AKT, cleaved Caspase-3 (Cell Signaling); GAPDH (Chemicon); E-Cadherin, beta-catenin (BD Pharmigen) Syk, TAK1, total ERK1 (Santa Cruz). For secreted BMP-7 levels, 1×10^6 HT29 cells stably expressing ER-KRAS(12V) were plated in 10 cm dishes. 24 h post-plating, 10 ml serum-free DME/F12 medium (Gibco) was added. Conditioned media was collected 24 h post-induction of ER-KRAS(12V) with 4-HT and concentrated to […], using AMICON® Ultra-4 Centrifugal Filter Units with 3 kDa membranes. […]
In general terms: Immunoblotting shows a protein as a band on a membrane.

Experiment [4] concerns HCT8 and SW837 (KRAS-independent) xenografted tumors. Kind of experiment: Subcutaneous xenografted tumors, KRAS-independent. In kind it is in vivo, NOD/SCID mice. The note with it: 15 mg/kg daily intraperitoneal. Here is the method:
(C) TAK1 inhibition in mice with xenografted human tumors derived from the HCT8/SW837 (KRAS-independent) and SK-CO-1/SW620 (KRAS-dependent) cell lines. Cells expressing firefly luciferase were injected subcutaneously into the flanks of […]. Tumors are shown as imaged by IVIS detection of luminescence counts (in photons/sec) following 14 days of tumor growth followed by 6 days of treatment with either 15 mg/kg 5z-7-oxozeaenol or vehicle ([…] in arachis oil), IP delivery q.d. Quantitation of tumor volume (mm^3) is plotted on the right. Tumor volume data are represented as the mean of 4 tumors in 2 mice for each group+/−SEM.
To validate the efficacy of 5Z-7-oxozeaenol in vivo, subcutaneous xenografted tumors were generated in NOD/SCID mice using four representative KRAS mutant cell lines: HCT8 and SW837 (KRAS-independent), and SK-CO-1 and SW620 (KRAS-dependent). Human colorectal cancer tumor cells were trypsinized and resuspended as single cell suspensions at 3×10^7 cells per ml in PBS. 100 μL (3×10^6 cells total) of this suspension were injected into opposite left and right flanks of NOD/SCID mice. All mice were housed in a pathogen-free environment. Tumor size was monitored daily and once tumor volume had reached approximately 200 mm^3, treatment with 5Z-7-oxozeaenol was initiated (7 to 14 days post-implantation). Mice were injected daily with 15 mg/kg 5Z-7-oxozeaenol. […]

Experiment [5] concerns HT29 cells expressing mutant KRAS (G12V) 4A or 4B. Kind of experiment: Sensitivity of HT29 cells expressing mutant KRAS (G12V). In kind it is cell-based, human. The settings on record: HT29 cells expressing 4A or 4B splice isoform of mutant KRAS (G12V). An excerpt:
(D) Forced overexpression of epitope-tagged oncogenic G12V mutated RAS protein isoforms in HT29 cells and sensitivity to TAK1 pharmacological inhibition with 5Z-7-oxozeaenol. Expression levels of exogenous and endogenous Ras proteins are shown by immunoblotting with a pan-ras monoclonal antibody. NRAS/KRAS4B are HA-tagged and KRAS4A is V5-tagged.
These cell lines are insensitive to 5Z-7-oxozeaenol.

Experiment [6] relates to TOP-FLASH reporter in YAPC cells. Kind of experiment: TOP-FLASH reporter in YAPC PDAC cells. The settings on record: YAPC cells, simultaneous treatment with BIO. In kind it is cell-based. An excerpt: (E) TOP-FLASH reporter activity in KRAS mutant PDAC cell lines following inhibition of GSK-3 kinase with increasing concentrations of the small molecule inhibitor BIO. PANC-1 are KRAS-independent cells and YAPC are KRAS-dependent cells. Luminescence counts (photons/sec) are plotted on the y-axis. Data are representative of three independent experiments+/−SEM.
(F) TOP-FLASH reporter dose-response relationships in PANC-1 and YAPC cells following combined treatment with GSK-3 and TAK1 inhibitors (BIO and 5Z-7-Oxozeaenok respectively). Luminescence counts (photons/sec) are plotted on the y-axis. Data are represented as the means of triplicates+/−SEM.
To further test the role of Wnt signaling in this context, experiments were performed using two KRAS mutant pancreatic cancer (PDAC) cell lines, PANC-1 and YAPC, which are APC wild-type. PANC-1 cells are KRAS-independent, whereas YAPC cells are KRAS-dependent, a distinction that has been linked to increased KRAS signaling in YAPC cells (Singh et al., 2009). […] In contrast, PANC-1 cells undergo stronger induction of TOP-FLASH activity with combined GSK-3 and TAK1 inhibition (FIG. 11F, […]). […] Finally, a constitutively-activated mutant of β-catenin (CTNNB1-CA) containing S33Y and S45A missense mutations was introduced into KRAS-dependent SW620 cells. This mutant caused partial losses in both KRAS and TAK1 dependencies (FIGS. 13A-C). […]

Results on one compound are retold here after US20140243403A1, “TREATING COLORECTAL, PANCREATIC, AND LUNG CANCER” (The General Hospital Corporation, priority 2011, published 2014).

Each structure is given as a SMILES string.

For `COc1cc(O)c2c(c1)/C=C/C[C@H](O)[C@H](O)C(=O)/C=C\C[C@H](C)OC2=O` [5Z-7-oxozeaenol], the “sensitivity to 5Z-7-oxozeaenol” value in experiment [1] was “largely refractory”. In experiment [2], the “caspase-3 or PARP cleavage” value is reported as “little or no”. For the same compound, the “threonine 172 phosphorylation of AMPK (p-AMPK)” value in experiment [3] (KRAS-dependent colon cancer cells) was “reduced”. For the same compound, the AMPK phosphorylation entry in experiment [3] (KRAS-independent cells) is reported as “unaffected”. For the same compound, in experiment [4], the “tumor response (imaging, tumor volume)” value was “no significant response”. The “reduction in the IC50 for 5Z-7-oxozeaenol” value in experiment [5] was found to be 3 fold. In experiment [6], the “effect on BIO-mediated TOP-FLASH induction” value is on record as “abrogates the BIO-mediated TOP-FLASH induction”.
